Columns and labels:
[1] = test system: human microvascular endothelial cells; assay: in vitro model of wound healing, time for 50% wound to heal; assay type: cell-based
From the text: The time for wounds to heal by 50% under the various treatment conditions was quantified.

[2] = test system: human umbilical vein endothelial cells (HUVEC); assay: HUVEC cell migration / wound gap closure with or without 30 mM glucose pre-treatment; assay type: cell-based; conditions: for Time for 50% wound to heal: 24 hours incubation before wounding; for Healing Improvement (%): compared to untreated cells
Protocol: Additional wound studies were conducted using umbilical cord stem cells in addition to the use of hydroxytyrosol compositions and commercially-available OLIVAMINE® (compositions of hydroxytyrosol and oleuropein) compositions (20 μM hydroxytyrosol, 80 μM oleuropein, 2 mM N-acetylcysteine, 50 μM L-proline, 2 mM glycine and 100 μM taurine). These were evaluated with human umbilical vein endothelial cells (HUVEC) to assess impact on cell migration and wound healing.
HUVEC cells. Human umbilical vein endothelial cells are derived from the endothelium of veins from the umbilical cord (HUVEC primary cells purchased from Lonza). HUVECs have been widely used as a model system for the study of the regulation of endothelial cell function and the role of the endothelium in response of the blood vessel wall to stretch, shear forces and the development of atherosclerotic plaques and angiogenesis. For the following study, HUVECs are a primary endothelial cell line as a model system for the function and pathology of endothelial cells. We investigated improvement in cell proliferation and migration following treatment with OLIVAMINE® (compositions of hydroxytyrosol and oleuropein) composition.
In this study, HUVEC cells were pre-treated with or without 30 mM glucose for 3 days (72 hours). The cells were then equilibrated for a day (24 hours), and incubated with 50 μM hydroxytyrosol or OLIVAMINE® (compositions of hydroxytyrosol and oleuropein) formulation (20 μM hydroxytyrosol, 80 μM oleuropein, 2 mM N-acetylcysteine, 50 μM L-proline, 2 mM glycine and 100 μM taurine) for 24 hours before wounding.
Images were taken at intervals and the wound gap was quantified over time using IMAGE® analysis software. […] The distances measured are depicted in the Figures by the horizontal solid lines indicating the distance between the gaps of the wound. 100 measurements were taken per image and a mean gap distance was determined. As shown in FIGS. 7-8 the initial wound and 24 hour measurement are shown by the images, under both control (FIG. 7A) and high glucose (FIG. 8A). In addition the reduction in percentage of open wound is further shown graphically for the control (FIG. 7B) and high glucose (FIG. 8B) conditions. The time for 50% of the wound to heal was quantified as well as the percentage of improvement compared to untreated cells.

[3] = test system: HMEC-1 cells; assay: crystal violet cell viability assay; assay type: cell-based, human; conditions: 24 hours; HT 0-200 μM, OL 0-800 μM, Formulation 1 0-4×
Protocol: A crystal violet cell viability assay was performed to determine the cytotoxic effects of OLIVAMINE® (compositions of hydroxytyrosol and oleuropein) composition on HMEC-1 cells. Briefly, cells were seeded on a 24-well plate and treated for 24 h dose-titration concentrations of HT (0-200 μM), OL (0-800 μM), OLIVAMINE® (compositions of hydroxytyrosol and oleuropein) composition (McCord formulation 1, dilution factor=4×, Table 8). Following treatment, cells were washed twice with 0.9% saline and fixed with […] of 4% neutral formalin for 15-30 min. Cells were then stained with […] of 0.01% (w/v) crystal violet for 30 min, washed with dH2O and left to dry under a fume hood overnight. Cells were then lysed with […] of lysis buffer for 15 min on a rotating platform and the absorbance of each well was measured at the 560 nm wavelength using a microplate spectrophotometer.
To determine whether olive phenols influence cell proliferation, a crystal violet cell viability analysis was conducted. The relative cell viability of HMEC-1 cells was investigated. Cells were incubated with varying concentrations of HT (0-200 μM), OL (0-800 μM) and Formulation 1 (Table 8, 0-4×) 24 hours.

[4] = test system: proliferative cells; assay: induction or maintenance of a quiescent cell state; assay type: cell-based; conditions: evidence obtained to-date
Protocol: More specifically, when present at a concentration above a threshold level, hydroxytyrosol can induce proliferative cells into a quiescent state and help maintain cells in a pre-existing quiescent state. Based upon evidence obtained to-date, the threshold concentration is about 10 μM hydroxytyrosol.

[5] = Table 9, single ingredients, Present Art and Present Art without one ingredient

Compound | Time for 50% wound to heal [1, 5] | effect on cell proliferation / viability [3] | Time for 50% wound to heal ([1]; Table 1) | further results
NCC(=O)O [Glycine] | 20.73 h |  |  | 
OCCc1ccc(O)c(O)c1 [Hydroxytyrosol] | 19.25 h | no significantly effects on cell proliferation | 19.25 h | Time for 50% wound to heal ([2]; High Glucose (30 mM, 72 hours)): 15.2 h; Healing Improvement (%) ([2]; High Glucose): 30%; Time for 50% wound to heal ([2]; no glucose pre-treatment): 19.7 h; Healing Improvement (%) ([2]; no glucose pre-treatment): 10%; threshold concentration for inducing or maintaining quiescence [4]: about 10 μM; less effective than the present art combination ([1]; hydroxytyrosol alone): 30%
NCCS(=O)(=O)O [L-Taurine] | 22.5 h |  |  | 
O=C(O)[C@@H]1CCCN1 [L-proline] | 23.24 h |  |  | 
CC(=O)N[C@@H](CS)C(=O)O [N-acetylcysteine, N-acetyl-L-cysteine, reference compound] | 28.87 h |  | 28.87 h | effect on time and extent of wound healing (in words) ([1]; compared to untreated or to single ingredients, absence and presence of glucose): increased the time to 50% healing compared to untreated
C/C=C1/[C@H](O[C@@H]2O[C@H](CO)[C@@H](O)[C@H](O)[C@H]2O)OC=C(C(=O)OC)[C@H]1CC(=O)OCCc1ccc(O)c(O)c1 [Oleuropein] | 25.62 h | no significantly effects on cell proliferation | 25.62 h | 
